Earlier results on 1 compound are cited in patent US10912471B2, “System and method for automatic perfusion measurement” (priority 2018, dated 2021).

One series concerns plasma proteins. The settings on record: becomes confined to the vascular system.
The conditions of series [1]: administration not without risks, e.g. during pregnancy.

As to `CC1(C)C(/C=C/C=C/C=C/C=C2\N(CCCCS(=O)(=O)O)c3ccc4ccccc4c3C2(C)C)=[N+](CCCCS(=O)(=O)[O-])c2ccc3ccccc3c21` [ICG, Indocyanine green], the “binding to plasma proteins” value in the series on plasma proteins was “binds tightly to plasma proteins”. Also, the toxicity classification entry in series [1] is recorded as “low”.
